Measurements from ChEMBL document CHEMBL5579866, “TRPA1 Inhibition Effects by 3-Phenylcoumarin Derivatives” (2024).
One block for each molecule: values may come before it. Active and inactive are the calls of the source. No cut-off for these calls is given here.

Assays:
[1] = target: Transient receptor potential cation channel subfamily A member 1 (Homo sapiens) (UniProt O75762); assay: Antagonist activity at AITC induced human TRPA1 expressed in HEK293 cells assessed as intracellular calcium level at 10 to 100 uM preincubated for 30 mins followed by AITC stimulation and measured for 30 sec by Fluo-3AM staining based assay; format: cell-based; conditions: filed as antagonist, dose 10-100 µM, time 1830.0 sec
Chain of Transient receptor potential cation channel subfamily A member 1 (Homo sapiens) (O75762 whole entry): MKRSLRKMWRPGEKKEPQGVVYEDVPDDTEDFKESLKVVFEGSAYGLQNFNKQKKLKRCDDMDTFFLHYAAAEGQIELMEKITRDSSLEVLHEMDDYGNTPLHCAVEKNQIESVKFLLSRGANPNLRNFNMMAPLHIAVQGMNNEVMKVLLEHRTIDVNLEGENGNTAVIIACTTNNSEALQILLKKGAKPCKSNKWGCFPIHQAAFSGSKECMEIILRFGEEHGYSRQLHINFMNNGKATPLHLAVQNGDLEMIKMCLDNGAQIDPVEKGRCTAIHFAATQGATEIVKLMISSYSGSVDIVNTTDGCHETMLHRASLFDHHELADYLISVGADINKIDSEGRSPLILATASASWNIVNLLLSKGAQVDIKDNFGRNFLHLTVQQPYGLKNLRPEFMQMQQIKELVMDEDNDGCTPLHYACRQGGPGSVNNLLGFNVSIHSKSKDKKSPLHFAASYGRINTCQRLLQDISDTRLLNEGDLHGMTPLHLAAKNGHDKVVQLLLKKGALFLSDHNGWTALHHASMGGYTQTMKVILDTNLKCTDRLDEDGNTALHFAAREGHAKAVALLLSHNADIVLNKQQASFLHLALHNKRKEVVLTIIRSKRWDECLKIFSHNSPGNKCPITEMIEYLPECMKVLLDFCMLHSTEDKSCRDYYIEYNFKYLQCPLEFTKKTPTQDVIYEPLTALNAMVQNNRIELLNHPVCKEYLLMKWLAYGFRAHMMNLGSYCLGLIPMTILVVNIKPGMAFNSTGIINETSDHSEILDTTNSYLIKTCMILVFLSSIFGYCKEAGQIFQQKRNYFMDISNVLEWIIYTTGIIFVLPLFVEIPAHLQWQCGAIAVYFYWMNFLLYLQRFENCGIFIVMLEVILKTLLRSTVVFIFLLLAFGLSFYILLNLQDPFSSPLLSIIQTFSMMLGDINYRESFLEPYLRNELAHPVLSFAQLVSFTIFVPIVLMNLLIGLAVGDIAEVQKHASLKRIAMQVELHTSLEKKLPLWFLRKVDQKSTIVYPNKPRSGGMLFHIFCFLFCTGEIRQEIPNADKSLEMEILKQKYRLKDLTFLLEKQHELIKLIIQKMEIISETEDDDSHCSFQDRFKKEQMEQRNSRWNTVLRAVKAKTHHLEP

T47D [2] = assay: Downregulation of TRPA1 protein expression in human T47D cells after 48 hrs; format: functional, cell-based
[3] = target: Transient receptor potential cation channel subfamily A member 1 (Homo sapiens) (UniProt O75762); assay: Agonist activity at human TRPA1; conditions: filed as agonist
T47D [4] = assay: Inhibition of human T47D spheroid 3D culture growth size at 10 uM incubated for 5 days by CellIQ live-cell analysis; format: functional; conditions: 120 h, time 5 day
T47D [5] = assay: Inhibition of human T47D spheroid 3D culture growth size at 10 uM incubated for 120 hrs by CellIQ live-cell analysis; format: functional
T47D [6] = assay: Inhibition of human T47D spheroid 3D culture growth size at 100 uM incubated for 5 days by CellIQ live-cell analysis; format: functional; conditions: 120 h, time 5 day
T47D [7] = assay: Inhibition of human T47D spheroid 3D culture growth size at 10 to 100 uM incubated for 12 hrs by CellIQ live-cell analysis; format: functional, cell-based; conditions: dose 10-100 µM
T47D [8] = assay: Inhibition of human T47D spheroid 3D culture growth size at 1 uM incubated for 120 hrs by CellIQ live-cell analysis; format: functional

Activity [1]: Active
SMILES: O=c1oc2ccccc2cc1-c1ccc(O)cc1

Activity [3]: Active
SMILES: O=c1oc2ccccc2cc1-c1cccc(O)c1
Activity (T47D [2]): Active

Further lines, the molecule ahead of its results:

SMILES: CC(=O)Oc1ccc2cc(-c3cccc(Br)c3)c(=O)oc2c1
inhibition at 10 µM (T47D [4]): 8% | inhibition at 10 µM (T47D [5]): 60% | inhibition at 100 µM (T47D [6]): 18% | inhibition (T47D [7]): Active | inhibition at 1 µM (T47D [8]): 20% | Activity (T47D [2]): inactive | Activity [1]: Active

SMILES: O=c1oc2cc(O)ccc2cc1-c1cccc(O)c1
Activity (T47D [2]): Active | Activity [1]: Active | Activity [3]: Active

SMILES: Oc1ccc(/C=C/c2cc(O)cc(O)c2)cc1
Activity (T47D [2]): Active

SMILES: CC(=O)Oc1ccc2cc(-c3ccccc3)c(=O)oc2c1
Activity (T47D [2]): inactive | Activity [1]: Active
